The source of these data is PubChem BioAssay (NCI).

Each structure is given as a SMILES string.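 These data come from cells grown in 96-well plates and exposed to compound for 48 hours at five concentrations. At the GI50, growth is halved. Definition used: TGI = concentration required for complete inhibition of growth.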 A value given as a limit tells only on which side of the number the result lay.

Some test systems named below: TK-10 renal; SK-MEL-28 melanoma; IGROV1 ovarian; SK-MEL-2 melanoma; SF-268 CNS; OVCAR-3 ovarian; UO-31 renal; NCI-H226 lung; M14 melanoma; SNB-19 CNS.
Experiment in all cases: NCI anticancer screen, dose series, 48 h

With `O=C(N/N=C1\C(=O)N(c2nccs2)C(=O)C(=O)C1c1nc2ccccc2s1)c1ccccc1O` (stereo not given), the TGI with TK-10 renal, in the assay with SK-MEL-28 melanoma, in the assay with IGROV1 ovarian, in the assay on SK-MEL-2 melanoma, with SF-268 CNS and in the assay on OVCAR-3 ovarian was above 100 µM throughout. For the same compound, the TGI is 35.4 µM with UO-31 renal, above 100 µM with NCI-H226 lung, above 100 µM with M14 melanoma and above 100 µM with SNB-19 CNS.

Consider `CN1CCN(c2ccc(NC(=O)c3cncnc3Nc3ccc(OCc4ccccn4)c(Cl)c3)cc2)CC1`, for which the GI50 in the assay on TK-10 renal is 6.78 µM; with SK-MEL-28 melanoma, 0.749 µM; with IGROV1 ovarian it was 3.13 µM; in the assay on SK-MEL-2 melanoma, 4.74 µM; in the assay with SF-268 CNS, 5.03 µM; in the assay on OVCAR-3 ovarian, 5.23 µM. Also, the GI50 with UO-31 renal is 3.89 µM; in the assay with NCI-H226 lung, 5.42 µM; in the assay with M14 melanoma, 0.65 µM; in the assay with SNB-19 CNS, 5.11 µM. In addition, the TGI in the assay on TK-10 renal was found to be 15.3 µM; with SK-MEL-28 melanoma it was 1.64 µM; in the assay on IGROV1 ovarian, 9.18 µM; in the assay on SK-MEL-2 melanoma, 11 µM; in the assay on SF-268 CNS it was 11.2 µM; in the assay on OVCAR-3 ovarian it was 13 µM. Also, the TGI in the assay with UO-31 renal was determined as 9.97 µM; with NCI-H226 lung, 13 µM; in the assay on M14 melanoma, 1.4 µM; with SNB-19 CNS, 11.8 µM.
